Converted amounts (≈) assume the structure as drawn.
Assays:
[1] = target: T1, Carnitine O-palmitoyltransferase 2, mitochondrial (Homo sapiens, UniProt P23786); assay: (§1) SUPPLEMENTARY: Inhibition of Carnitine palmitoyltransferase 2
T1 sequence (P23786 whole entry): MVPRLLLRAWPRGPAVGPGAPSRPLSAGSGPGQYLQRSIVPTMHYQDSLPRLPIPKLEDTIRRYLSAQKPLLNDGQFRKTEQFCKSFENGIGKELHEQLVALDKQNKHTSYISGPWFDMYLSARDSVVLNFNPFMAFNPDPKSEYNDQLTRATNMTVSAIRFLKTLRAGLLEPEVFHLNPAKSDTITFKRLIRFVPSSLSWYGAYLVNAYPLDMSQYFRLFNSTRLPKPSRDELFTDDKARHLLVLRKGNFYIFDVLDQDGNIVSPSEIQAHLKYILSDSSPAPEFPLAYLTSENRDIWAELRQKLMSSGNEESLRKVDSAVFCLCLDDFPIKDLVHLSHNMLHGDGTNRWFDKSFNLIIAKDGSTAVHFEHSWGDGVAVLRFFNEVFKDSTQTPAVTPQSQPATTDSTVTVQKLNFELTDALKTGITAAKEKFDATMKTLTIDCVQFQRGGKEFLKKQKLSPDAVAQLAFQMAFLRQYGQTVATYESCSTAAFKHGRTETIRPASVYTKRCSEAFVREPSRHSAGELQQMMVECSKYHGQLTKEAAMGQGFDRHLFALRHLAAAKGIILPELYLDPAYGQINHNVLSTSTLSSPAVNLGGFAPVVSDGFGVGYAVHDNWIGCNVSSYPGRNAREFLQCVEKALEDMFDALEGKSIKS

[2] = target: T2, Carnitine O-palmitoyltransferase 2, mitochondrial (Rattus norvegicus, UniProt P18886); assay: as §1
T2 sequence (P18886 whole entry): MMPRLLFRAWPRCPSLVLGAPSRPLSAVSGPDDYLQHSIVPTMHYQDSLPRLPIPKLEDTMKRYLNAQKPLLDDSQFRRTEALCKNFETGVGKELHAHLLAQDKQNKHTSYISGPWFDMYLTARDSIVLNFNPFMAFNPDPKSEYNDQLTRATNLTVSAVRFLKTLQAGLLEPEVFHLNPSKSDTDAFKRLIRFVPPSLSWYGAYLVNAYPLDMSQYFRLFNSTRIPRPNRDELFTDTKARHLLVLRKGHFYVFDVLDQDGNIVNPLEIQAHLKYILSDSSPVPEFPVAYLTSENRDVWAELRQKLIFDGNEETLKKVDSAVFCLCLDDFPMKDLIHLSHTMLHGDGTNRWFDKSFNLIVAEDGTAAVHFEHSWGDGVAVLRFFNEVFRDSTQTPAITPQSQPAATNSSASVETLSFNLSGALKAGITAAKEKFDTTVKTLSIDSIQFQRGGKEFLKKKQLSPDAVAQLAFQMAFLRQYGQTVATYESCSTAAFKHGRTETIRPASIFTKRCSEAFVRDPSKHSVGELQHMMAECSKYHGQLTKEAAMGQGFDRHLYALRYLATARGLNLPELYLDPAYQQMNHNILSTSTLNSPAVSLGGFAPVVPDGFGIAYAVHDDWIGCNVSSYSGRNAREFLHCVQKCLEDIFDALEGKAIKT

[3] = SUPPLEMENTARY: Lyophilisation Solubility Assay (LYSA); type: physicochemical; conditions: read-out: Kinetic_solubility
[4] = target: T3, Carnitine O-palmitoyltransferase 1, liver isoform (Rattus norvegicus, UniProt P32198); assay: (§2) SUPPLEMENTARY: Inhibition of Carnitine palmitoyltransferase 1, liver isoform
T3 sequence (P32198 whole entry): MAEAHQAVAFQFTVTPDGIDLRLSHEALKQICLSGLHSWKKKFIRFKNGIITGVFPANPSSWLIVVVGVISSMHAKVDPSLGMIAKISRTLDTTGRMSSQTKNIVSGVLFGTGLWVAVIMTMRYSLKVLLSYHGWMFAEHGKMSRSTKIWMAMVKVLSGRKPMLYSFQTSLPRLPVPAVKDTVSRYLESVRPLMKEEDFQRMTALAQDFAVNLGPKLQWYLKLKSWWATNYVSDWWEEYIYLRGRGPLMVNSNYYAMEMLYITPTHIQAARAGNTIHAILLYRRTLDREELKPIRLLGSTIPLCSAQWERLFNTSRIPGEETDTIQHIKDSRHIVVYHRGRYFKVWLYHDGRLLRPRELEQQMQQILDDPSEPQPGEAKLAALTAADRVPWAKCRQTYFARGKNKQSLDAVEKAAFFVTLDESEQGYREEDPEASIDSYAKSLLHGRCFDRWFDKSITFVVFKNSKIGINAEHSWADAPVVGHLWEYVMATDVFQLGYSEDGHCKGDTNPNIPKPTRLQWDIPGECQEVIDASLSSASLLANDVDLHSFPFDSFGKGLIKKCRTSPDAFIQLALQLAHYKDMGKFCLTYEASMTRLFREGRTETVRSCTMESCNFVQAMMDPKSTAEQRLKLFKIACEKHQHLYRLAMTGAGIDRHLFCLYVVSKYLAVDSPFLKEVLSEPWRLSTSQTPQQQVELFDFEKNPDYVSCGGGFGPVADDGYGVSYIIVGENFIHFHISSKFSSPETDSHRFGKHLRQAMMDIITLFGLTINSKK

[5] = target: T4, Carnitine O-palmitoyltransferase 1, liver isoform (Homo sapiens, UniProt P50416); assay: as §2
T4 sequence (P50416 whole entry): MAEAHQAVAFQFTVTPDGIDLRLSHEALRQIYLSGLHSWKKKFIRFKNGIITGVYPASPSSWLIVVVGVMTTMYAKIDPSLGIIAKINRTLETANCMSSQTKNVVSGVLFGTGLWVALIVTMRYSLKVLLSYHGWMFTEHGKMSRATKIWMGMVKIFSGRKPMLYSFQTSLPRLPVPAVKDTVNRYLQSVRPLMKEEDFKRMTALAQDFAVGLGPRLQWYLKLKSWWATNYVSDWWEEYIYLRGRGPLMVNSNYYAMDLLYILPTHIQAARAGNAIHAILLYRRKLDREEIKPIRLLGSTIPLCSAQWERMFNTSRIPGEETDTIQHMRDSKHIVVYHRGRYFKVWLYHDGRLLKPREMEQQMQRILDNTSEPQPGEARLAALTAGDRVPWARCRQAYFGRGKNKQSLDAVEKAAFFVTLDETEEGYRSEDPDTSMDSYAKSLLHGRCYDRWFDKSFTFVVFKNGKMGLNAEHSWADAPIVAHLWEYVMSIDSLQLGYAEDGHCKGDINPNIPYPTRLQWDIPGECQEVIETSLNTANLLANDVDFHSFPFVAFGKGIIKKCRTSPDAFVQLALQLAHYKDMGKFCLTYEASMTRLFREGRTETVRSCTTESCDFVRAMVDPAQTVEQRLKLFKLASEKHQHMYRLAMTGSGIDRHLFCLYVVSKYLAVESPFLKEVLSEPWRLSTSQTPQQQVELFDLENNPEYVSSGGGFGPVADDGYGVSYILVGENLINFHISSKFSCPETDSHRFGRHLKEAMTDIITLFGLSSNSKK

[6] = target: T5, Carnitine O-palmitoyltransferase 1, muscle isoform (Homo sapiens, UniProt Q92523); assay: SUPPLEMENTARY: Inhibition of Carnitine palmitoyltransferase 1, muscle isoform; parameters: species or system Muscle tissue
T5 sequence (Q92523 whole entry): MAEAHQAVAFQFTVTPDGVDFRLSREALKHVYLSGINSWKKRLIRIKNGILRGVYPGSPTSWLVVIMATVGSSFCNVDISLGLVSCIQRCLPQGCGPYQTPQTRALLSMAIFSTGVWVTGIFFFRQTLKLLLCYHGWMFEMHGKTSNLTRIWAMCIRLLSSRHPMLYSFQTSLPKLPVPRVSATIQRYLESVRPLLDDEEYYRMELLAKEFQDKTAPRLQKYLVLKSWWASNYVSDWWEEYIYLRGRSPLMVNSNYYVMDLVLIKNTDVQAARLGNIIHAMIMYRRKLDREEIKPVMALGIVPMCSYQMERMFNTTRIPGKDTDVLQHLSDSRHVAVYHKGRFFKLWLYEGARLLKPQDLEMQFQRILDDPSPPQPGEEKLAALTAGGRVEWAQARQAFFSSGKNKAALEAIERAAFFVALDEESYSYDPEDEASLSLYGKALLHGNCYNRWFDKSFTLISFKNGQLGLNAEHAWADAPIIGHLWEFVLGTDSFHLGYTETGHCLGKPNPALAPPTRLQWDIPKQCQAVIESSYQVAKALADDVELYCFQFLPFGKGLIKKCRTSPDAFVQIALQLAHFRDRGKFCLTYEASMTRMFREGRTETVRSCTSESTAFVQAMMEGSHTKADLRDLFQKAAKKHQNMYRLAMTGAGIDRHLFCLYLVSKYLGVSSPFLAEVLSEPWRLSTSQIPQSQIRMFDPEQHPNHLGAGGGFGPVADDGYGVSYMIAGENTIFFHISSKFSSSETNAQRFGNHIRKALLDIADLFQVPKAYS

[7] = SUPPLEMENTARY: PAMPA permeability assay; type: physicochemical; conditions: read-out: Permeability

| SMILES | IC50 [1] [nM] | IC50 [2] [nM] | solubility kinetic [3] [µg/mL] | IC50 [4] [nM] | IC50 [5] [nM] | IC50 [6] [nM] | Papp [7] [×10⁻⁶ cm/s] |
| --- | --- | --- | --- | --- | --- | --- | --- |
| COc1ccc(Cl)cc1S(=O)(=O)c1c[nH]c2ccc(C(=O)Nc3ccccc3)cc12 | > 100000 | > 100000 | 1 (≈ 2.27 µM) | 83.8 | 114 | > 100000 | 0.06 |
| COc1ccc(Cl)cc1S(=O)(=O)N1CCOc2ccc(C(=O)Nc3ccc(CCC(=O)O)cc3)cc21 | > 100000 | > 100000 | 4 (≈ 7.53 µM) | 106 | 175 | 932 | 3.3 |
| COc1ccc(Cl)cc1Cc1cn(C)c2ccc(C(=O)Nc3ccc(C(=O)O)cc3)cc12 | 1350 | 9310 | 23 (≈ 51.2 µM) | 102 | 39.9 | 2330 | 0.47 |
| O=C(COc1ccccc1)N1CCCC[C@@H]1c1noc(C2C[C@@H]3CC[C@H]2C3)n1 (some centres undefined) | 19900 | > 100000 | < 1 | 310 | 32.6 | > 100000 | – |
| COc1ccc(Cl)cc1S(=O)(=O)N1CCc2ccc(C(=O)Nc3ccc(C(=O)O)cc3)cc21 | – | 7820 | 5 (≈ 10.3 µM) | 55 | – | > 100000 | 2.78 |
| Cc1ccnc(N2CCN(C(=O)[C@H]3CCCCN3C(=O)COc3ccccc3)CC2)c1 | 586 | 1270 | – | 196 | 124 | 31700 | – |
| O=C(COc1ccccc1)NS(=O)(=O)Cc1ccc(-c2nc([C@H]3CCCCN3C(=O)COc3ccccc3)cs2)cc1 | 2380 | 6580 | – | 361 | 214 | 2290 | – |

More lines, now with the values ahead:

| IC50 [1] [nM] | IC50 [2] [nM] | solubility kinetic [3] [µg/mL] | IC50 [4] [nM] | IC50 [5] [nM] | IC50 [6] [nM] | Papp [7] [×10⁻⁶ cm/s] | SMILES |
| --- | --- | --- | --- | --- | --- | --- | --- |
| > 100000 | > 100000 | 4 (≈ 7.71 µM) | 56.9 | 65.4 | > 100000 | – | COc1ccc(Cl)cc1S(=O)(=O)N1CCSc2ccc(C(=O)Nc3ccc(C(=O)O)cc3)cc21 |
| > 100000 | > 100000 | 34 (≈ 69.7 µM) | 85.9 | 142 | 32400 | 1.13 | COc1ccc(Cl)cc1CN1C(=O)COc2ccc(C(=O)Nc3nc(CC(=O)O)cs3)cc21 |
| > 100000 | > 100000 | 6 (≈ 13 µM) | 151 | 152 | 950 | 1.89 | Cc1cc(C)cc(S(=O)(=O)n2ccc3ccc(C(=O)Nc4ccc(CC(=O)O)cc4)cc32)c1 |
| > 100000 | > 100000 | 1 (≈ 1.99 µM) | 189 | 71.3 | 11800 | 0.81 | COc1ccc(Cl)cc1S(=O)(=O)N1CCNc2ccc(C(=O)Nc3ccc(C(=O)O)cc3)cc21 |
| > 100000 | > 100000 | 7 (≈ 13.4 µM) | 53.4 | 111 | 19600 | 4.82 | O=C(Nc1ccc(C(=O)O)c(F)c1)c1ccc2c(c1)N(S(=O)(=O)c1cc(Cl)cc(Cl)c1)CCC2 |
| 12800 | – | 4 (≈ 9.82 µM) | 237 | 243 | > 100000 | 0.66 | O=C(COc1ccccc1)N1CCCCC1c1ncc(-c2cccc([N+](=O)[O-])c2)o1 (centres undefined) |
| > 100000 | > 100000 | < 1 | – | 221 | > 100000 | – | Cc1cc(C)cc(S(=O)(=O)c2n[nH]c3ccc(C(=O)Nc4ccccc4)cc23)c1 |
| 28700 | 49600 | > 525 | 96.4 | 19.7 | – | 3.55 | O=C([O-])c1cccc(-c2csc([C@H]3CCCCN3C(=O)COc3ccccc3)n2)c1.[Na+] |
| 17200 | – | 10 (≈ 24.4 µM) | 760 | 254 | > 100000 | 5.48 | O=C(COc1ccccc1)N1CCCC[C@@H]1c1nc(-c2cccc([N+](=O)[O-])n2)no1 |
| 634 | 1610 | – | 367 | 224 | > 100000 | – | O=C([C@H]1CCCCN1C(=O)COc1ccccc1)N1CCc2c(Cl)cccc2C1 |

Reference: ChEMBL document CHEMBL3431459, “Roche carnitine palmitoyltransferase modulator screening data (supplementary data associated with the publication CHEMBL2216752)”
